According to patent US20210283099A1, “CDC7 KINASE INHIBITORS AND USES THEREOF” (SLOAN-KETTERING INSTITUTE FOR CANCER RESEARCH, priority 2010, published 2021):
Like-named read-outs stand apart in the source and are kept apart here.

Tests used:
[1] = system: RPE (retinal pigment epithelial cells); assay: FACS and caspase-3 assay in normal diploid cells; type: cell-based
Experimental: (§1) FIGS. 23A-23C. Granaticin A and B are not cytotoxic to normal diploid cells: FIGS. 23A-23B: Granaticin B exposure is not cytotoxic to normal diploid cells. Either HeLa or RPE (retinal pigment epithelial cells, a normal human diploid cell line) cells were incubated in carrier control (DMSO) or granaticin B (1 microM) for 24 hours and samples were subjected to standard FACS analysis with the x-axis indicating DNA content (FIG. 23A). […] FIG. 23C: Granaticin A exposure is not cytotoxic to normal diploid cells. Either HeLa or RPE (retinal pigment epithelial cells, a normal diploid cell line) cells were incubated in carrier control (DMSO) or granaticin A for 24 hours and samples were subjected to standard FACS analysis with FL2 indicating DNA content.

H358 = assay: Cytotoxicity assay (Alamar blue); type: cell-based; conditions: NCI-H358, Human lung adenocarcinoma, G13C KRAS mutation
Experimental: (§2) FIGS. 16A-16B. Granaticin A and Granaticin B inhibit multiple tumor types: The indicated cell lines and primary patient samples were tested against the compounds listed in standard cytotoxicity assays (12 point dose response using Alamar blue reduction as an indicator of cell viability). Assays were done in triplicate and IC50 determinations were run in 12-point serial dilutions from […] to 5 nM. […] These include ras and EGFR gatekeeper mutation containing cell lines in addition to p53 mutant cell lines and other known chemotherapy resistant cell lines. Specifically, this included multi-drug resistance phenotype (MDR-overexpressing) cell lines from multiple hematologic and solid tumor cell lines. Table 1 highlights a series of primary patient leukemia samples-both acute and chronic and treatment naïve and refractory tested against granaticins A and B and Derivatives 1 and 2 (see Examples).

SKOV3 = assay: Cytotoxicity assay (Alamar blue); type: cell-based; conditions: SK-OV-3, Human adenocarcinoma from the ovary derived from ascites, hypodiploid
Experimental: as §2

H1650 = assay: Cytotoxicity assay (Alamar blue); type: cell-based; conditions: NCI-H1650, Human lung adenocarcinoma, DelE746-A750 EGFR mutation, wild-type RAS, PTEN null
Experimental: as §2

JUCO = assay: Cytotoxicity assay (Alamar blue); type: cell-based; conditions: Homo sapiens, Patient sample of pre-B cell ALL with t(4;11) involving the MLL gene
Experimental: as §2

H23 = assay: Cytotoxicity assay (Alamar blue); type: cell-based; conditions: NCI-H23, Human lung adenocarcinoma, G12c KRAS mutation, M246I P53 mutation
Experimental: as §2

JAMC = assay: Cytotoxicity assay (Alamar blue); type: cell-based; conditions: Homo sapiens, Patient sample of AML with inversion of chromosome 16
Experimental: as §2

H11-18 = assay: Cytotoxicity assay (Alamar blue); type: cell-based; conditions: Human lung adenocarcinoma, L858R EGFR mutation
Experimental: as §2

CWR22 = assay: Cytotoxicity assay (Alamar blue); type: cell-based; conditions: human prostate carcinoma
Experimental: as §2

RORI = assay: Cytotoxicity assay (Alamar blue); type: cell-based; conditions: Homo sapiens, Patient sample of relapsed/refractory AML with trisomy of chromosome #8
Experimental: as §2

DOGO = assay: Cytotoxicity assay (Alamar blue); type: cell-based; conditions: Homo sapiens, Patient sample of CLL with trisomy of chromosome 12 and unmutated Ig heavy chain locus
Experimental: as §2

FUUR1 = assay: Cytotoxicity assay (Alamar blue); type: cell-based; conditions: human renal cell carcinoma with the reciprocal ASPL-TFE3 fusion transcript
Experimental: as §2

H3255 = assay: Cytotoxicity assay (Alamar blue); type: cell-based; conditions: NCI-H3255, Human lung adenocarcinoma, L858R EGFR mutation, wild-type KRAS, wild-type P53
Experimental: as §2

HCC4011 = assay: Cytotoxicity assay (Alamar blue); type: cell-based; conditions: Human lung adenocarcinoma, L858R EGFR mutation, wild-type KRAS
Experimental: as §2

TC71 = assay: Cytotoxicity assay (Alamar blue); type: cell-based; conditions: TC-71, Human Ewing's sarcoma
Experimental: as §2

132 = assay: Cytotoxicity assay (Alamar blue); type: cell-based; conditions: Homo sapiens, Patient sample of Chronic Lymphocytic Leukemia
Experimental: as §2

BE(2)C = assay: Cytotoxicity assay (Alamar blue); type: cell-based; conditions: human neuroblastoma, p53 mutant
Experimental: as §2

HL60 RV = assay: Cytotoxicity assay (Alamar blue); type: cell-based; conditions: Homo sapiens, HL-60, MDR variant of HL60 selected with vincristine
Experimental: as §2

MCF-7 = assay: Cytotoxicity assay (Alamar blue); type: cell-based; conditions: MCF7, human invasive breast ductal carcinoma, estrogen and progesterone receptor positive
Experimental: as §2

STGL = assay: Cytotoxicity assay (Alamar blue); type: cell-based; conditions: Homo sapiens, Patient sample of refractory AML with multiple chromosomal abnormalities (refractory to allogeneic BMT)
Experimental: as §2

SOPA = assay: Cytotoxicity assay (Alamar blue); type: cell-based; conditions: Homo sapiens, Patient sample of secondary AML with chromsome 11q23 abnormality
Experimental: as §2

ALBU = assay: Cytotoxicity assay (Alamar blue); type: cell-based; conditions: Homo sapiens, Patient sample of essential thrombocythemia transformed to refractory acute myelogenous leukemia
Experimental: as §2

JOQU = assay: Cytotoxicity assay (Alamar blue); type: cell-based; conditions: Homo sapiens, Patient sample of relapsed/refractory AML with trisomy of chromosome #8 and Flt-3 ITD
Experimental: as §2

RADO = assay: Cytotoxicity assay (Alamar blue); type: cell-based; conditions: Homo sapiens, Patient sample of primary refractory AML with multiple chromosomal abnormalities (−5, −7)
Experimental: as §2

JURKAT E61 = assay: Cytotoxicity assay (Alamar blue); type: cell-based; conditions: Jurkat E6.1, Human Acute Lymphoblastic T-cell leukemia
Experimental: as §2

H2122 = assay: Cytotoxicity assay (Alamar blue); type: cell-based; conditions: NCI-H2122, human lung adenocarcinoma, G12C KRAS mutation, Q16L and C176F P53 mutations
Experimental: as §2

HL60 MX1 = assay: Cytotoxicity assay (Alamar blue); type: cell-based; conditions: Homo sapiens, MDR variant of HL60 selected with mitoxantrone-clone 1
Experimental: as §2

KASUMI4 = assay: Cytotoxicity assay (Alamar blue); type: cell-based; conditions: Kasumi-4, Human CML transformed to acute myeloid leukemia, overexpression of EVI1
Experimental: as §2

HeLa = assay: FACS and caspase-3 assay in HeLa cells; type: cell-based, human; conditions: for cell cycle profile: 24 hours (granaticin B 1 microM)
Experimental: as §1

| Structure (SMILES) | IC50 (H358) [nM] | IC50 (SKOV3) [nM] | IC50 (H1650) [nM] | IC50 (JUCO) [nM] | IC50 (H23) [nM] | IC50 (JAMC) [nM] | IC50 (H11-18) [nM] | IC50 (CWR22) [nM] | IC50 (RORI) [nM] | IC50 (DOGO) [nM] | IC50 (FUUR1) [nM] | IC50 (H3255) [nM] | IC50 (HCC4011) [nM] | IC50 (TC71) [nM] | IC50 132 [nM] | IC50 (BE(2)C) [nM] | IC50 (HL60 RV) [nM] | IC50 (MCF-7) [nM] | IC50 (STGL) [nM] | IC50 (SOPA) [nM] | also measured |
| --- | --- | --- | --- | --- | --- | --- | --- | --- | --- | --- | --- | --- | --- | --- | --- | --- | --- | --- | --- | --- | --- |
| CC1OC2CC(O)C1(O)c1c(O)c3c(c(O)c12)C(=O)C1=C(C3=O)[C@H](C)O[C@H]2CC(=O)O[C@@H]12 (stereo partly drawn) [Granaticin A, granaticin A] | 210 | 120 | 290 | 80 | 120 | 60 | 420 | 90 | 1200 | 150 | 480 | 210 | 140 | 150 | 130 | 70 | 90 | 170 | 1880 | 100 | cell cycle profile [1]: unaffected; IC50 (ALBU): 430 nM; IC50 (JOQU): 770 nM; IC50 (RADO): 60 nM; IC50 (JURKAT E61): 50 nM; IC50 (H2122): 1190 nM; IC50 (HL60 MX1): 170 nM; IC50 (KASUMI4): 300 nM; cell cycle profile (HeLa): apoptotic cell death |
| CC1OC2CC(O[C@H]3CC[C@H](O)[C@H](C)O3)C1(O)c1c(O)c3c(c(O)c12)C(=O)C1=C(C3=O)[C@H](C)O[C@H]2CC(=O)O[C@@H]12 (stereo partly drawn) [Granaticin B, granaticin B] | 50 | 40 | 60 | 10 | 50 | 40 | 60 | 40 | 100 | 70 | 340 | 70 | 50 | 90 | 10 | 40 | 70 | 130 | 620 | 90 | caspase-3 activation ([1]; RPE cells, 1 microM): does not result in caspase-3 activation; cell cycle profile ([1]; RPE cells, 24 hours (granaticin B 1 microM)): essentially unaffected; IC50 (ALBU): 30 nM; IC50 (JOQU): 140 nM; IC50 (RADO): 30 nM; IC50 (JURKAT E61): 20 nM; IC50 (H2122): 210 nM; IC50 (HL60 MX1): 80 nM; IC50 (KASUMI4): 180 nM; caspase-3 activation (HeLa; 1 microM): only activated in HeLa cells; cell cycle profile (HeLa): apoptotic cell death |
